According to patent publication US12594227B2, “Tetrapeptide and compositions comprising tetrapeptides” (THE BOOTS COMPANY PLC, priority 2020, dated 2026):
The star is where a group is joined. Palmitoyl = CCCCCCCCCCCCCCCC(=O)*

How the values were obtained:
CDH2 = assay: LC-MS/MS relative protein abundance in secretome/matrisome of HDFs: CDH2; format: cell-based, human; details: 8 ppm peptide, seven-day culture
Method: (§1) Following incubation with the peptides, liquid chromatography tandem mass spectrometry (LC-MS/MS) was used to quantify the relative abundance differences between proteins identified in the secretome/matrisome, versus an untreated control. HDFs from a donor, plated at 50,000 cells per well, were cultured with either peptide dissolved in cell culture media to achieve a final concentration of 8 ppm or with media without any peptide as a negative control. Treated and control cells were tested in triplicate. The cells were cultured as normal for five days in serum-supplemented media and then for a further two days in serum-free media (seven-day culture in total). The cell media containing the secretome (the proteins secreted by the cell) and the ECM, decellularized by incubation with EDTA (ethylenediaminetetraacetic acid), containing the matrisome (the collection of ECM associated proteins) were collected. The combined secretome and the matrisome compartments were subsequently analysed by LC-MS/MS using the following protocol.
(§2) Proteins were denatured (in urea), reduced (in dithiothreitol) and mechanically disassociated (using ultrasonication) prior to overnight digestion with trypsin (SMART Digest™ trypsin kit; Thermo Fisher). After digestion, samples were cleaned of contaminants up by removal of organic molecules and surfactants using biphasic extraction and desalted using OLIGO™ R3 Reversed Phase Resin (Thermo Fisher).
(§3) Samples (200 ng) were ran on an UltiMate® 3000 Rapid Separation Liquid Chromatographer coupled to a Q Exactive™ Hybrid Quadrupole-Orbitrap™ Mass Spectrometer for 90-minutes per sample run. Spectral data was searched again the Uniprot Human proteome database using Mascot v2.5.1. Subsequent protein identification and data-dependent quantification was performed using Progenesis QI. Normalised protein abundances were compared between each peptide treatment and control. Statistical analysis was performed within Progenesis QI using a between sample ANOVA.
(§4) The mass spectrometry data for each peptide is shown below in table 3 and FIG. 1. […] These protein families were as follows: proteoglycans, UV DNA repair proteins, basement membrane protein and cell-adhesion proteins; functional protein families with a potentially important role in dermal repair and remodelling.
(§5) The results of the above mass spectrometry experiments wherein a range of tetrapeptides are applied to HDFs to elicit a response in the expression of dermal extracellular proteins are provided in table 3 below. The protein family which the protein belongs to is also shown. Mass spectrometry results using peptide sequences, according to the invention (column 1) and not according to the present invention (columns 2, 3 and 4), are also presented within the table for comparison.

RAD23A = assay: LC-MS/MS relative protein abundance in secretome/matrisome of HDFs: RAD23A; format: cell-based, human; details: 8 ppm peptide, seven-day culture
Method: as §1, §2, §3, §4, §5

LAMB2 = assay: LC-MS/MS relative protein abundance in secretome/matrisome of HDFs: LAMB2; format: cell-based, human; details: 8 ppm peptide, seven-day culture
Method: as §1, §2, §3, §4, §5

NID1 = assay: LC-MS/MS relative protein abundance in secretome/matrisome of HDFs: NID1; format: cell-based, human; details: 8 ppm peptide, seven-day culture
Method: as §1, §2, §3, §4, §5

CSPG2 = assay: LC-MS/MS relative protein abundance in secretome/matrisome of HDFs: CSPG2; format: cell-based, human; details: 8 ppm peptide, seven-day culture
Method: as §1, §2, §3, §4, §5

LGALS3 = assay: LC-MS/MS relative protein abundance in secretome/matrisome of HDFs: LGALS3; format: cell-based, human; details: 8 ppm peptide, seven-day culture
Method: as §1, §2, §3, §4, §5

Fibronectin = assay: ELISA assay of fibronectin in culture supernatant of human dermal fibroblasts; format: cell-based; details: 5 ppm peptide; normal human dermal fibroblasts; 72 hours; ELISA weighted to viable cells
Method: (§6) An ELISA is an immunological assay commonly used to measure presence and abundance of a specific proteins (antibodies, antigens, proteins and glycoproteins) in biological samples. In this case ELISAs are being used to quantify the expression of dermal extracellular proteins collagen-1, decorin, and fibronectin. The quantity of collagen I is evaluated via the quantity of PIP (“carboxU-terminal pro-peptide of procollagen type I”) which is a peptide fragment resulting from the enzymatic degradation of procollagen present outside the fibroblast in the culture supernatant medium. […]
(§7) Normal human dermal fibroblasts cells (HDFs) were cultured in contact with the tetrapeptides of the present invention, or composition without the peptide (negative control), for 72 hours. Thereafter the cultured supernatants were removed, and the quantity of dermal extracellular proteins determined using an ELISA assay for the protein of interest. For the ELISA quantification, cell viability was calculated using Hoechst staining allowing the quantity of dermal proteins to be weighted to the number of viable cells.
(§8) The effect of the QTAV tetrapeptide on ECM protein expression by fibroblasts as measured by ELISA (column 1) versus tetrapeptide not conforming to the QTAV structure (column 2) are presented in the table below (table 1). Results are expressed as % increase versus the negative control.

Collagen 1 (PIP) = assay: ELISA assay of collagen I (via PIP) in culture supernatant of human dermal fibroblasts; format: cell-based; details: 5 ppm peptide; normal human dermal fibroblasts; 72 hours; ELISA weighted to viable cells
Method: as §6, §7
The quantity of collagen I is evaluated using the quantity of PIP (“carboxU-terminal pro-peptide of procollagen type I”) which is a peptide fragment resulting from the enzymatic degradation of procollagen present outside the fibroblast in the culture supernatant medium. […]

Fibrillin-1 = assay: Immunofluorescence of Fibrillin-1 fibre abundance in primary human dermal fibroblasts; format: cell-based; details: HDF cells, 5 days
Method: Immunofluorescence relies on the use of antibodies to label a specific protein with a fluorescent dye such as fluorescein isothiocyanate (FITC). In the following experiments, indirect immunofluorescence is used where a primary antibody first recognises and attaches to the specific protein, in this case fibrillin-1, and then a secondary antibody conjugated with FITC directed against the primary antibody is used for detection.
For all experiments, the control liquid stock was prepared by dissolving the powdered peptides in DMSO (Dimethyl Sulfoxide solvent). Peptide powders were dissolved in DMSO at recommended part per million concentrations and then further diluted in the cell culture medium and combined to obtain the desired peptide ratio.
Fibrillin-1 expression was determined using immunofluorescence. Primary human dermal fibroblast (I-IDF) cells were purchased from Promo Cell and came from a donor. […]
The antibody binding to Fibrillin-1 fibres was visualised using a Nikon Eclipse 100 microscope fluorescence setting using an excitation lens for fluorescein isothiocyanate (FITC). […] ImageJ software was used to quantify the Fibrillin-1 fibre abundance and coverage in each image using a threshold of 235 measuring the fibre density.
Results are expressed as a percentage increase in fibrillin abundance compared to untreated control. […]

Decorin = assay: ELISA assay of decorin in culture supernatant of human dermal fibroblasts; format: cell-based; details: 5 ppm peptide; normal human dermal fibroblasts; 72 hours; ELISA weighted to viable cells
Method: as §6, §7, §8

[1] = system: proteoglycans, UV DNA repair proteins, basement membrane protein and cell-adhesion proteins; assay: LC-MS/MS protein families overview (bubble plot FIG. 1) in HDFs; format: cell-based, human; details: 8 ppm peptide, result in words
Method: as §1, with “protocol. […]” for “protocol.”
Samples (200 ng) were ran on an UltiMate® 3000 Rapid Separation Liquid Chromatographer coupled to a Q Exactive™ Hybrid Quadrupole-Orbitrap™ Mass Spectrometer for 90-minutes per sample run. […] Subsequent protein identification and data-dependent quantification was performed using Progenesis QI. […]

Row | Substance | CDH2 (Cell adhesion) protein enhanced versus untreated control (CDH2) [%] | RAD23A (UV DNA repair) protein enhanced versus untreated control (RAD23A) [%] | LAMB2 (Basement membrane) protein enhanced versus untreated control (LAMB2) [%] | NID1 (Basement membrane) protein enhanced versus untreated control (NID1) | CSPG2 (Proteoglycans) protein enhanced versus untreated control (CSPG2) [%] | LGALS3 (Cell adhesion) protein enhanced versus untreated control (LGALS3) [%] | Fibronectin, % increase versus the negative control (Fibronectin) | Collagen 1 (PIP), % increase versus the negative control (Collagen 1 (PIP)) | Fibrillin-1, percentage increase in fibrillin abundance compared to untreated control (Fibrillin-1; 10 ppm peptide) | Decorin, % increase versus the negative control (Decorin) | enhancement of protein families (proteoglycans, UV DNA repair proteins, basement membrane proteins, cell adhesion proteins) ([1]; FIG. 1 bubble plot) | protein synthesis in comparison to the control ([1]; HDFs, LC-MS/MS) | Fibrillin-1, percentage increase in fibrillin abundance compared to untreated control (Fibrillin-1; 12.5 ppm peptide)
1 | Pal-GPSG-OH | 85 | 51 | 25 | 28% | 20 | 2 | – | – | – | – | – | – | –
2 | Pal-GYIL-OH | – | – | – | – | – | – | −23% | −4% | +3% | +2% | – | – | –
3 | Pal-LSPD-OH | 39 | 5 | 40 | 27% | 5 | 5 | – | – | – | – | – | – | –
4 | Pal-LSPG-OH | 10 | 94 | 22 | 6.60%^ | <1 | 24 | – | – | – | – | – | – | –
5 | Pal-QTAV-OH (Palmitoyl-QTAV-OH; SMILES CCCCCCCCCCCCCCCC(=O)N[C@@H](CCC(N)=O)C(=O)N[C@H](C(=O)N[C@@H](C)C(=O)N[C@H](C(=O)O)C(C)C)[C@@H](C)O) [palmitoyl tetrapeptide Gln-Thr-Ala-Val with free C-terminal OH, according to the invention] | 69 | 230 | 27 | 32% | 31 | 32 | +87% | +59% | – | +33% | the only sequence to significantly enhance | overall enhancement of protein synthesis | +84%
